Measurements reported in ChEMBL document CHEMBL5050844 (2019).

Tests used:
[1] = Induction of anti-CD3/CD28 antibodies-stimulated human T cell activation at 4 uM assessed fold increase in CD25 expression measured by ELISA assay; assay type: functional, T cell line
[2] = Induction of anti-CD3 antibodies-stimulated human T cell activation at 1 uM assessed fold increase in IL-2 secretion measured by ELISA assay; assay type: functional, T cell line; further: reference of the scale not given here
[3] = Induction of anti-CD3/CD28 antibodies-stimulated human T cell activation at 0.3 uM assessed fold increase in IL-2 secretion measured by ELISA assay; assay type: functional, T cell line
[4] = Induction of anti-CD3 antibodies-stimulated human T cell activation at 1 uM assessed fold increase in CD25 expression measured by ELISA assay; assay type: functional, T cell line; further: reference of the scale not given here
[5] = Induction of anti-CD3/CD28 antibodies-stimulated human T cell activation at 1 uM assessed fold increase in CD25 expression measured by ELISA assay; assay type: functional, T cell line
[6] = Induction of anti-CD3 antibodies-stimulated human T cell activation at 8 uM assessed fold increase in CD25 expression measured by ELISA assay; assay type: functional, T cell line; further: reference of the scale not given here
[7] = Induction of anti-CD3/CD28 antibodies-stimulated human T cell activation at 4 uM assessed fold increase in IL-2 secretion measured by ELISA assay; assay type: functional, T cell line
[8] = Induction of anti-CD3/CD28 antibodies-stimulated human T cell activation at 1 uM assessed fold increase in IL-2 secretion measured by ELISA assay; assay type: functional, T cell line
[9] = Induction of anti-CD3 antibodies-stimulated human T cell activation at 8 uM assessed fold increase in IL-2 secretion measured by ELISA assay; assay type: functional, T cell line; further: reference of the scale not given here
[10] = Induction of anti-CD3/CD28 antibodies-stimulated human T cell activation at 0.3 uM assessed fold increase in CD25 expression measured by ELISA assay; assay type: functional, T cell line
[11] = target: E3 ubiquitin-protein ligase CBL-B (Homo sapiens, UniProt Q13191); assay: Inhibition of N-terminal Avi-tagged human CBL-B (36 to 427 residues) incubated with 60 nM Src kinase for 1.5 hrs followed by incubation with fluorescently labeled UbcH5B-Ub for 1 hr and measured by TR-FRET assay; assay type: single protein
E3 ubiquitin-protein ligase CBL-B, sequence (Q13191 whole entry, the tested form may be a part): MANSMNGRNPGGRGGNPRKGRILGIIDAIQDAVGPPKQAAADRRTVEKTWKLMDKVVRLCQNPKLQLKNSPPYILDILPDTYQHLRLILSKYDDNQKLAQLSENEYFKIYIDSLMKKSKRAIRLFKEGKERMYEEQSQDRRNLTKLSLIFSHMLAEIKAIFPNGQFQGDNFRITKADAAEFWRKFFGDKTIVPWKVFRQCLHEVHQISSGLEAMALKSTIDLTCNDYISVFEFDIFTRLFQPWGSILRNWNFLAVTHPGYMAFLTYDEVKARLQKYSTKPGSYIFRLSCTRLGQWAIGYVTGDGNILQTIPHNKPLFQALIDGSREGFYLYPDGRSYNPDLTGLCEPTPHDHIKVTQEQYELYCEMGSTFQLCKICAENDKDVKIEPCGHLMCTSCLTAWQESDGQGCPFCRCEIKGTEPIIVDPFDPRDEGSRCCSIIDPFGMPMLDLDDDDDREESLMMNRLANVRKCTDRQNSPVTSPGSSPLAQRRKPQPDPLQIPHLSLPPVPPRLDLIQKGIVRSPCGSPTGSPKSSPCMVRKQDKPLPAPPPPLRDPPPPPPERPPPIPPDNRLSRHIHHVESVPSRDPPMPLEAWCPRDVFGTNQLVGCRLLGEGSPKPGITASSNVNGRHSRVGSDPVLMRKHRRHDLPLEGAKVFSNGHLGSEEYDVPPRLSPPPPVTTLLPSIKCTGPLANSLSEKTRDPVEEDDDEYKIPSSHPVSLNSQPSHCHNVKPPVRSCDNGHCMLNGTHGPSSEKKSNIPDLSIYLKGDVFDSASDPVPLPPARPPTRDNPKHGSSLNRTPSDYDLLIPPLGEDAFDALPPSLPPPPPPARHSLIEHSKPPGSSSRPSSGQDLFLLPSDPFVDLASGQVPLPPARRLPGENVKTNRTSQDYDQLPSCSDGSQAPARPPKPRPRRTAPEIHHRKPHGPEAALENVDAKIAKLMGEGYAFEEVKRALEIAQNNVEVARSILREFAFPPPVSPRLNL

Row | Structure (SMILES) | IC50 [11] [nM] | fold change (FC) [1] | fold change (FC) [2] | fold change (FC) [3] | fold change (FC) [4] | fold change (FC) [5] | fold change (FC) [6] | fold change (FC) [7] | fold change (FC) [8] | fold change (FC) [9] | fold change (FC) [10] | fold change (FC) ([2]; 1 µM) | fold change (FC) ([3]; 0.3 µM) | fold change (FC) ([6]; 8 µM) | fold change (FC) ([7]; 4 µM) | fold change (FC) ([8]; 1 µM)
1 | CC(Cc1nncn1C)c1cc(C2CCC2)cc(N2Cc3c(cccc3C(F)(F)F)C2=O)c1 (stereo not given) | – | 1.01 | 0.051 | 1.01 | 0.601 | 1.01 | 0.801 | 1.01 | 1.01 | 0.051 | 1.01 | – | – | – | – | –
2 | Cn1cnnc1C(F)(F)[C@@](C)(F)c1cccc(N2Cc3c(cc(CN4CC[C@H](F)C4)cc3C(F)(F)F)C2=O)c1 | – | 1.01 | 0.051 | <=1 | 0.601 | <=1 | 0.801 | 1.01 | <=1 | 0.051 | <=1 | – | – | – | – | –
3 | Cc1cc(C(=O)Nc2cccc([C@H](C)Sc3nncn3C)c2)nc2ccccc12 | – | 1.01 | 0.051 | 1.01 | 0.601 | 1.01 | 0.801 | 2.51 | 1.01 | 0.101 | 1.01 | – | – | – | – | –
4 | C[C@H](Cc1nncn1C)c1cccc(N2Cc3c(ccnc3C(C)(C)F)C2=O)c1 | – | – | – | – | – | – | – | >=7.5 | – | – | – | – | – | – | – | –
5 | Cc1ccc(C(=O)Nc2cccc([C@@H](C)Cc3nccn3C)c2)nc1C1CC1 | – | – | – | – | – | – | – | – | – | – | – | <=0.05 | 1.01 | 0.601 | 1.01 | 1.01
6 | CC[C@@H](c1cc2c(c(C(F)(F)F)c1)CN(c1cccc(C3(Cc4nncn4C)COC3)c1)C2=O)N1CC[C@H](F)C1 | < 100 | – | >=0.201 | >=7.5 | >=1.001 | 1.51 | – | – | >=7.5 | – | 1.51 | – | – | – | – | –
7 | C[C@@H](c1cc2c(c(C(F)(F)F)c1)CN(c1cccc(C3(Cc4nncn4C)COC3)c1)C2=O)N1CC(C)(F)C1 | < 100 | – | >=0.201 | 2.51 | >=1.001 | 1.51 | – | – | >=7.5 | – | 1.31 | – | – | – | – | –
8 | CC(c1cc2c(c(C3CC3)n1)CN(c1cccc(C3(Cc4nncn4C)COC3)c1)C2=O)N1CCCCC1 (stereo not given) | < 100 | – | >=0.201 | 5 | 0.601 | >=1.76 | – | – | >=7.5 | – | >=1.76 | – | – | – | – | –
9 | Cc1cc(C(=O)Nc2cccc(C3(Cc4nncn4C)COC3)c2)n2ncc(C)c2n1 | < 100 | – | 0.051 | 2.51 | 0.801 | 1.01 | – | – | 2.51 | – | 1.01 | – | – | – | – | –

Continued, in another order:

Row | IC50 [11] [nM] | Structure (SMILES) | fold change (FC) [1] | fold change (FC) [2] | fold change (FC) [3] | fold change (FC) [4] | fold change (FC) [5] | fold change (FC) [6] | fold change (FC) [7] | fold change (FC) [8] | fold change (FC) [9] | fold change (FC) [10] | fold change (FC) ([2]; 1 µM) | fold change (FC) ([3]; 0.3 µM) | fold change (FC) ([6]; 8 µM) | fold change (FC) ([7]; 4 µM) | fold change (FC) ([8]; 1 µM)
10 | < 100 | Cn1cnnc1[C@@H](F)C1(c2cccc(N3Cc4c(cc(CN5CCC6(CC6)C5)cc4C(F)(F)F)C3=O)c2)COC1 | – | 0.101 | 5 | >=1.001 | 1.31 | – | – | >=7.5 | – | 1.01 | – | – | – | – | –
11 | < 100 | Cn1cnnc1CC1(c2cccc(N3Cc4c(cc(C5=CCOC5)cc4C(F)(F)F)C3=O)c2)COC1 | – | 0.101 | 2.51 | 0.801 | 1.31 | – | – | 2.51 | – | 1.01 | – | – | – | – | –
12 | < 100 | CN1CCC(=O)C(Cc2cc3c(c(C(F)(F)F)c2)CN(c2cccc(C4(Cc5nncn5C)COC4)c2)C3=O)C1 (stereo not given) | – | >=0.201 | >=7.5 | >=1.001 | 1.01 | – | – | >=7.5 | – | 1.01 | – | – | – | – | –
13 | < 100 | Cc1cc(C(=O)Nc2cccc(C3([C@@H](F)c4nncn4C)COC3)c2)nc(C2CC2)n1 | – | >=0.201 | 2.51 | >=1.001 | 1.31 | – | – | >=7.5 | – | 1.01 | – | – | – | – | –
14 | < 100 | Cn1cnnc1CC1(c2cccc(N3Cc4c(cc(OC(F)F)cc4C(F)(F)F)C3=O)c2)COC1 | – | 0.051 | 2.51 | 0.801 | 1.31 | – | – | 5 | – | 1.01 | – | – | – | – | –
15 | < 100 | Cn1cnnc1CC1(c2cccc(N3Cc4c(cc(N5CCN6CCC[C@@H]6C5)cc4C(F)(F)F)C3=O)c2)COC1 | – | >=0.201 | >=7.5 | >=1.001 | >=1.76 | – | – | >=7.5 | – | >=1.76 | – | – | – | – | –
16 | < 100 | Cn1cnnc1CC1(c2cccc(N3Cc4c(cc(CN5CCCc6c5cnn6C)cc4C(F)(F)F)C3=O)c2)COC1 | – | >=0.201 | 5 | >=1.001 | 1.01 | – | – | >=7.5 | – | 1.01 | – | – | – | – | –
17 | < 100 | CC(c1cc2c(c(C(F)(F)F)c1)CN(c1cccc(C3(Cc4nncn4C)COC3)c1)C2=O)N1CC(S(C)(=O)=O)C1 (stereo not given) | – | 0.101 | 1.01 | 0.601 | 1.01 | – | – | 1.01 | – | 1.01 | – | – | – | – | –
18 | < 100 | Cn1cnnc1CC1(c2cccc(N3Cc4c(cc(C(N5CCCC5)C(F)(F)F)cc4C(F)(F)F)C3=O)c2)COC1 (stereo not given) | – | 0.051 | 1.01 | 0.801 | 1.31 | – | – | 2.51 | – | 1.01 | – | – | – | – | –
19 | < 100 | Cn1cnnc1CC1(c2cccc(N3Cc4c(cc(C5CCOC5)cc4C(F)(F)F)C3=O)c2)COC1 (stereo not given) | – | 0.101 | 2.51 | 0.801 | 1.01 | – | – | 5 | – | 1.01 | – | – | – | – | –
20 | < 100 | CN1CC2CC1CN2c1cc2c(c(C(F)(F)F)c1)CN(c1cccc([C@@](C)(F)C(F)(F)c3nncn3C)c1)C2=O (single isomer, unassigned; 562) | – | >=0.201 | 5 | >=1.001 | 1.51 | – | – | >=7.5 | – | 1.51 | – | – | – | – | –
21 | < 100 | C[C@@H](c1cc2c(c(C(F)(F)F)c1)CN(c1cccc(C3(Cc4nncn4C)COC3)c1)C2=O)N1CC(F)C1 | – | 0.151 | 5 | >=1.001 | 1.51 | – | – | >=7.5 | – | 1.31 | – | – | – | – | –
22 | < 100 | Cn1cnnc1CC1(c2cccc(N3Cc4c(cc(C(O)c5ccccc5)cc4C(F)(F)F)C3=O)c2)COC1 (stereo not given) | – | >=0.201 | 5 | >=1.001 | 1.31 | – | – | >=7.5 | – | 1.31 | – | – | – | – | –
